# Experimental data taken from patent publication US20180340947A1, “INVOLVEMENT OF THE BUFO[…] THE DIAGNOSIS AND TREATMENT OF POST-TRAUMATIC STRESS DISORDER (PTSD)” (priority 2017, published 2018).
# What was measured:
# [1] = in vitro; cited from earlier work
# blood/brain barrier = settings: including disruption of the blood/brain barrier; cited from earlier work
# [2] = test system: GFAP-labeled astrocytes in cortex after impact acceleration injury; test: GFAP immuno-fluorescence of brain after impact acceleration injury (IAI); type: in vivo; settings: RBG at 1 hour after IAI
# Description: FIGS. 2A-2C. Micrographs of GFAP (glial fibrillary acidic protein) immuno-fluorescence. GFAP antibody labels the intermediate filaments of most astrocytes in the brain. In the sham animals (FIG. 2A), a normal distribution of GFAP-labeled astrocytes is seen. At 24 hours after an impact acceleration injury (IAI; FIG. 2B), a noticeable scar is observed (arrows) in layers 2 and 3 of the cortex. There is also a patchy loss of GFAP-labeled astrocytes throughout cortex and the vasculature (arrowheads) appears damaged. The loss of GFAP immunoreactivity and the appearance of astrocyte hypertrophy are indicative of a neuroinflammatory response to injury. […] The RBG treatment also reduces the decrease in GFAP immunoreactivity and a greater proportion of GFAP-labeled astrocytes have a normal, rather than hypertrophied appearance.
# [3] = test system: preeclampsia in animal models; settings: cited from earlier work
# [4] = test system: traumatic brain injured animals; test: Urinary MBG excretion in sham and traumatic brain injured animals; type: in vivo
# Source text: There are estimated to be between 300,000 to 350,000 veterans of the Middle East conflicts who currently suffer from PTSD related to wartime service. However, there are no proven methods to diagnose and stage the results of both physical and psychological trauma leading to PTSD, nor are there successful preventative or treatment methods. The interest in these military-associated problems has been accelerated by their potential application also to concussion in civilian life, especially to amateur, collegiate, and professional sports. Thus far, no solution has been enunciated nor has been proven (Meier and Ivory, Jul. 3, 2015, The New York Times). […] 114. […] It has been determined that a circulating cardiac glycoside (or “cardiotonic steroid”) called marinobufagenin (MBG) (FIG. 1), acts as both an indicator and initiator of the inflammatory process involved in TBI (FIG. 1) (Shapiro et al., The American Society for Clinical Pharmacology and Therapeutics, Dallas, Tex., Mar. 2-5, 2011. ASCPT Annual Meeting Program Booklet, p. 78; Puschett et al., Medical Research Archives 2015, ISSN 2375-1924; Oliver et al., J Experimental Neuroscience 2015, 9:67-72). […]
# [5] = test system: rodent brain contusion model; test: Rodent brain contusion model; type: in vivo; settings: given 1 hour after the insult
# Source text: MBG is elevated in other syndromes such as preeclampsia and traumatic brain injury. It has been shown that the administration of the antagonist of MBG, resibufagenin (RBG), is therapeutically effective. […] RBG antagonizes MBG activity and may be an effective treatment for hypertension, ARDS, traumatic brain injury, and preeclampsia. Certain embodiments are directed to treating a patient having elevated levels of MBG by administering an MBG antagonist or anti-MBG agent. In certain aspects the anti-MBG agent is resibufagenin (RBG).
SMILES,Vasoconstrictor action [1],Vascular leak (blood/brain barrier),Glial scar ([2]; IAI+RBG animals),"Alterations after IAI (glial scar, loss of GFAP immunoreactivity, astrocyte hypertrophy) ([2]; micrographs at 24 hours after IAI)",Preeclampsia [3],"Urinary MBG excretion ([4]; TBI + RBG group, N = 10, sham 592.8 ± 79.3, TBI 1340.9 ± 308.5, P TBI vs. TBI + RBG = 0.02)","Antagonism of the effects of MBG ([4]; animal model of TBI (FIG. 2, Table 1))",Tissue injury [5]
"C[C@]12CC[C@H](O)C[C@@]1(O)CC[C@@H]1[C@@H]2CC[C@]2(C)[C@@H](c3ccc(=O)oc3)C[C@H]3O[C@]132 [MBG, marinobufagenin]",acts in vitro as a vasoconstrictor,cause vascular leak,–,–,–,–,–,–
"C[C@]12CC[C@H](O)C[C@H]1CC[C@@H]1[C@@H]2CC[C@]2(C)[C@@H](c3ccc(=O)oc3)C[C@H]3O[C@]132 [RBG, resibufogenin]",–,–,A glial scar was not observed,most of these alterations are ameliorated,prevents preeclampsia,475.3 ± 56.1,antagonizes the effects of MBG,amelioration of tissue injury
